Literature values in patent publication US12226415B2, “Methods and compositions for the treatment of hair loss” (Aneira Pharma Inc., priority 2019, dated 2025).

Columns and labels:
[1] = tested on: production of dihydrotestosterone (DHT); details: oral; including in the prostate gland and the scalp
human FP receptors = human FP receptors (Homo sapiens, UniProt P43088)
hair growth = details: for hair growth: McCarey et al. 2004
[2] = propylene glycol, methanol, ethanol and 2-propanol
intraocular pressure = details: glaucomatous monkey eyes, Gagliuso et al. 2004
[3] = tested on: elevated intraocular pressure; details: some human glaucoma patients non-responsive to latanoprost, Gandolfi 2003

Chain of human FP receptors (P43088 whole entry): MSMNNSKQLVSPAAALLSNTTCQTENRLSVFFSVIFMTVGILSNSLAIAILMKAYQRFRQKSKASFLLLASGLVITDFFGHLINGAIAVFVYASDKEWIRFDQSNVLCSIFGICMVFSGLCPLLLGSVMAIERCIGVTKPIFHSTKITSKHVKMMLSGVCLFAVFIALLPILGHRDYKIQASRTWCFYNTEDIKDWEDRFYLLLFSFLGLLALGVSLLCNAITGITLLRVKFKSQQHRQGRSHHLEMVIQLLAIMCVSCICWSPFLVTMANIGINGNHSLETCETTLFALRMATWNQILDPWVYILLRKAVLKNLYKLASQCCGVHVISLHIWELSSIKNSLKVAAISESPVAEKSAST

CC(C)(C)NC(=O)[C@H]1CC[C@H]2[C@@H]3CC[C@H]4NC(=O)C=C[C@]4(C)[C@H]3CC[C@]12C [finasteride, (1S,3aS,3bS,5aR,9aR,9bS,11aS)—N-tert-butyl-9a,11a-dimethyl-7-oxo-1,2,3,3a,3b,4,5,5a,6,9b,10,11-dodecahydroindeno[5,4-f]quinoline-1-carboxamide]
decrease of production of dihydrotestosterone (DHT) [1]: about 70%

O=C(O)CCC/C=C\C[C@@H]1[C@@H](CC[C@@H](O)CCc2ccccc2)[C@H](O)C[C@@H]1O [Latanoprost free acid]
potency relative to PGF2α (human FP receptors): twice the potency of PGF2α

CCCCCCCC(=O)CC[C@@H]1[C@@H](C/C=C\CCCC(=O)OC(C)C)[C@@H](O)C[C@H]1O [Uenoprostone isopropyl ester]
hair growth (hair growth): no hair growth
incidence of iris pigmentation and eyelash changes (hair growth; two randomized clinical trials, 0.15%): Low incidence

CCCCCCCC(=O)CC[C@@H]1[C@@H](C/C=C\CCCC(=O)O)[C@@H](O)C[C@H]1O [uenoprostone free acid]
hair growth (hair growth): no hair growth

CC(C)OC(=O)CCC/C=C\C[C@@H]1[C@@H](CC[C@@H](O)CCc2ccccc2)[C@H](O)C[C@@H]1O [latanoprost, isopropyl ester of 17-phenyl-13,14-dihydro prostaglandin F2a]
solubility (concentration that can be obtained) [2]: ≥ 5%

CCNC(=O)CCC/C=C\C[C@@H]1[C@@H](/C=C/[C@@H](O)CCc2ccccc2)[C@H](O)C[C@@H]1O [bimatoprost]
effect on elevated intraocular pressure in combination with latanoprost (intraocular pressure): additive
response in reducing elevated intraocular pressure [3]: responsive
